In PubChem BioAssay (NCI):
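Cells were grown in 96-well plates and exposed to each compound for 48 hours at five concentrations; endpoints were interpolated linearly between bracketing concentrations, or set to the highest concentration if not reached. At the GI50, growth is halved. TGI is the concentration that stops growth completely.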

Experiments:
Assay in all cases: growth of human tumour cells (NCI), 48 h
A498 renal = tested on: A498 renal
HOP-62 NSCLC = tested on: HOP-62 NSCLC
MDA-MB-231 breast = tested on: MDA-MB-231 breast
NCI-H522 lung = tested on: NCI-H522 lung
RXF 393 renal = tested on: RXF 393 renal
SF-268 CNS = tested on: SF-268 CNS
SK-OV-3 ovarian = tested on: SK-OV-3 ovarian
SW-620 colon = tested on: SW-620 colon
TK-10 renal = tested on: TK-10 renal
UACC-257 melanoma = tested on: UACC-257 melanoma

Compound: O=C(NO)c1cnc(N2CCN(S(=O)(=O)c3ccc4ccccc4c3)CC2)nc1
- GI50 (A498 renal): 28.3 nM
- TGI (A498 renal): 220 nM
- GI50 (HOP-62 NSCLC): 104 nM
- TGI (HOP-62 NSCLC): 5490 nM
- GI50 (MDA-MB-231 breast): 199 nM
- TGI (MDA-MB-231 breast): 5280 nM
- GI50 (NCI-H522 lung): 20 nM
- TGI (NCI-H522 lung): 104 nM
- GI50 (RXF 393 renal): 39.9 nM
- TGI (RXF 393 renal): 208 nM
- GI50 (SF-268 CNS): 169 nM
- TGI (SF-268 CNS): 1300 nM
- GI50 (SK-OV-3 ovarian): 147 nM
- TGI (SK-OV-3 ovarian): 2330 nM
- GI50 (SW-620 colon): 34.9 nM
- GI50 (TK-10 renal): 43.2 nM
- TGI (TK-10 renal): 454 nM
- GI50 (UACC-257 melanoma): 24.9 nM
- TGI (UACC-257 melanoma): 188 nM

Compound: CC(=O)OCC(=O)C1(O)C(C)CC2C3C=C(C)C4=Cc5c(cnn5-c5ccccc5)CC4(C)C3C(O)CC21C (stereo not drawn)
- GI50 (A498 renal): 1400 nM
- TGI (A498 renal): 3940 nM
- GI50 (HOP-62 NSCLC): 1350 nM
- TGI (HOP-62 NSCLC): 3520 nM
- GI50 (MDA-MB-231 breast): 1850 nM
- TGI (MDA-MB-231 breast): 4340 nM
- GI50 (NCI-H522 lung): 1970 nM
- TGI (NCI-H522 lung): 5240 nM
- GI50 (RXF 393 renal): 781 nM
- TGI (RXF 393 renal): 2390 nM
- GI50 (SF-268 CNS): 1640 nM
- TGI (SF-268 CNS): 11400 nM
- TGI (SK-OV-3 ovarian): 5710 nM
- GI50 (SW-620 colon): 1700 nM
- TGI (SW-620 colon): 3420 nM
- GI50 (TK-10 renal): 2130 nM
- TGI (TK-10 renal): 9730 nM
- GI50 (UACC-257 melanoma): 2960 nM
- TGI (UACC-257 melanoma): 12200 nM

Compound: Brc1ccc(Br)nn1
- GI50 (A498 renal): 3420 nM
- TGI (A498 renal): 17500 nM
- GI50 (HOP-62 NSCLC): 4020 nM
- TGI (HOP-62 NSCLC): 10100 nM
- GI50 (MDA-MB-231 breast): 1830 nM
- TGI (MDA-MB-231 breast): 4230 nM
- GI50 (NCI-H522 lung): 243 nM
- TGI (NCI-H522 lung): 928 nM
- GI50 (RXF 393 renal): 1320 nM
- TGI (RXF 393 renal): 2630 nM
- GI50 (SF-268 CNS): 1900 nM
- TGI (SF-268 CNS): 5040 nM
- GI50 (SK-OV-3 ovarian): 8640 nM
- TGI (SK-OV-3 ovarian): 20800 nM
- GI50 (SW-620 colon): 1660 nM
- TGI (SW-620 colon): 6540 nM
- GI50 (TK-10 renal): 2560 nM
- TGI (TK-10 renal): 6370 nM
- GI50 (UACC-257 melanoma): 1720 nM
- TGI (UACC-257 melanoma): 3890 nM

Compound: C[C@@H](Oc1cc(-c2cnn(C3CC4(CCCNC4)C3)c2)cnc1N)c1c(Cl)ccc(F)c1Cl (stereo partly drawn)
- GI50 (A498 renal): 532 nM
- TGI (A498 renal): 2530 nM
- GI50 (HOP-62 NSCLC): 1210 nM
- TGI (HOP-62 NSCLC): 4920 nM
- GI50 (MDA-MB-231 breast): 1290 nM
- TGI (MDA-MB-231 breast): 3110 nM
- GI50 (NCI-H522 lung): 1350 nM
- TGI (NCI-H522 lung): 2790 nM
- GI50 (RXF 393 renal): 1280 nM
- TGI (RXF 393 renal): 2620 nM
- GI50 (SF-268 CNS): 1810 nM
- TGI (SF-268 CNS): 6020 nM
- GI50 (SK-OV-3 ovarian): 2610 nM
- TGI (SK-OV-3 ovarian): 6960 nM
- GI50 (SW-620 colon): 597 nM
- TGI (SW-620 colon): 2360 nM
- GI50 (TK-10 renal): 2020 nM
- TGI (TK-10 renal): 5470 nM
- GI50 (UACC-257 melanoma): 1450 nM
- TGI (UACC-257 melanoma): 2880 nM

Compound: C/C(=N\Nc1cccc(Cl)n1)c1ccccn1
- GI50 (A498 renal): 1410 nM
- TGI (A498 renal): 4870 nM
- GI50 (HOP-62 NSCLC): 456 nM
- TGI (HOP-62 NSCLC): 16900 nM
- GI50 (MDA-MB-231 breast): 584 nM
- TGI (MDA-MB-231 breast): > 100000 nM
- GI50 (NCI-H522 lung): 508 nM
- TGI (NCI-H522 lung): > 40300 nM
- GI50 (RXF 393 renal): 982 nM
- TGI (RXF 393 renal): 16100 nM
- GI50 (SF-268 CNS): 673 nM
- TGI (SF-268 CNS): 15200 nM
- GI50 (SK-OV-3 ovarian): 1080 nM
- TGI (SK-OV-3 ovarian): > 43200 nM
- GI50 (SW-620 colon): 614 nM
- TGI (SW-620 colon): > 100000 nM
- GI50 (TK-10 renal): 700 nM
- TGI (TK-10 renal): > 100000 nM
- GI50 (UACC-257 melanoma): 2270 nM
- TGI (UACC-257 melanoma): 7510 nM

Compound: O=P1(O)c2ccccc2CS(=O)(=O)Cc2ccccc21
- TGI (A498 renal): > 100000 nM
- TGI (HOP-62 NSCLC): > 100000 nM
- TGI (MDA-MB-231 breast): > 100000 nM
- TGI (NCI-H522 lung): > 100000 nM
- TGI (RXF 393 renal): > 100000 nM
- TGI (SF-268 CNS): > 100000 nM
- TGI (SK-OV-3 ovarian): > 100000 nM
- TGI (SW-620 colon): > 100000 nM
- TGI (TK-10 renal): > 100000 nM
- TGI (UACC-257 melanoma): > 100000 nM

Compound: N#CSCC(=O)c1ccc(Cl)cc1
- GI50 (A498 renal): 5590 nM
- TGI (A498 renal): 20900 nM
- GI50 (HOP-62 NSCLC): 5190 nM
- TGI (HOP-62 NSCLC): 28800 nM
- GI50 (MDA-MB-231 breast): 3570 nM
- TGI (MDA-MB-231 breast): 12400 nM
- GI50 (NCI-H522 lung): 2690 nM
- TGI (NCI-H522 lung): 9510 nM
- GI50 (RXF 393 renal): 2050 nM
- TGI (RXF 393 renal): 5180 nM
- GI50 (SF-268 CNS): 2580 nM
- TGI (SF-268 CNS): 8310 nM
- GI50 (SK-OV-3 ovarian): 4350 nM
- TGI (SK-OV-3 ovarian): 30800 nM
- GI50 (SW-620 colon): 2130 nM
- TGI (SW-620 colon): 12200 nM
- GI50 (TK-10 renal): 3210 nM
- TGI (TK-10 renal): 13600 nM
- GI50 (UACC-257 melanoma): 5640 nM
- TGI (UACC-257 melanoma): > 28600 nM

Compound: COc1cc2c3c(c1O)C1(C=CC(=O)C=C1)CC3N(C)CC2 (stereo not drawn)
- TGI (A498 renal): 48400 nM
- TGI (HOP-62 NSCLC): 25700 nM
- TGI (MDA-MB-231 breast): 17400 nM
- TGI (NCI-H522 lung): 7210 nM
- TGI (RXF 393 renal): 19400 nM
- TGI (SF-268 CNS): 34600 nM
- TGI (SK-OV-3 ovarian): > 100000 nM
- TGI (SW-620 colon): 18300 nM
- TGI (TK-10 renal): 41700 nM
- TGI (UACC-257 melanoma): 27700 nM

Compound: COC(=O)Nc1nc2ccc(Sc3ccccc3)cc2[nH]1
- GI50 (A498 renal): 140 nM
- TGI (A498 renal): 6400 nM
- GI50 (HOP-62 NSCLC): 277 nM
- TGI (HOP-62 NSCLC): 4230 nM
- GI50 (MDA-MB-231 breast): 476 nM
- TGI (MDA-MB-231 breast): 21500 nM
- GI50 (NCI-H522 lung): 113 nM
- TGI (NCI-H522 lung): 587 nM
- GI50 (RXF 393 renal): 154 nM
- TGI (RXF 393 renal): 510 nM
- GI50 (SF-268 CNS): 1440 nM
- TGI (SF-268 CNS): 26900 nM
- GI50 (SK-OV-3 ovarian): 179 nM
- TGI (SK-OV-3 ovarian): 684 nM
- GI50 (SW-620 colon): 107 nM
- TGI (SW-620 colon): > 48300 nM
- GI50 (TK-10 renal): 1270 nM
- TGI (TK-10 renal): 17300 nM
- GI50 (UACC-257 melanoma): 3080 nM
- TGI (UACC-257 melanoma): > 66800 nM

Compound: ClC1=C(Cl)C(Cl)=C(Cl)C1=Cc1ccc(Cl)cc1
- GI50 (A498 renal): 1600 nM
- TGI (A498 renal): 3170 nM
- GI50 (HOP-62 NSCLC): 802 nM
- TGI (HOP-62 NSCLC): 2300 nM
- GI50 (MDA-MB-231 breast): 302 nM
- TGI (MDA-MB-231 breast): 1080 nM
- GI50 (NCI-H522 lung): 230 nM
- TGI (NCI-H522 lung): 655 nM
- GI50 (RXF 393 renal): 267 nM
- TGI (RXF 393 renal): 842 nM
- GI50 (SF-268 CNS): 419 nM
- TGI (SF-268 CNS): 1100 nM
- GI50 (SK-OV-3 ovarian): 1640 nM
- TGI (SK-OV-3 ovarian): 3550 nM
- GI50 (SW-620 colon): 241 nM
- TGI (SW-620 colon): 680 nM
- GI50 (TK-10 renal): 331 nM
- TGI (TK-10 renal): 899 nM
- GI50 (UACC-257 melanoma): 1370 nM
- TGI (UACC-257 melanoma): 3300 nM
